Test results as given in patent US10975082B2, “Inhibitor of FLT3 kinase and use thereof” (PRECEDO PHARMACEUTICALS CO., LTD, priority 2016, dated 2021).

Columns and labels:
[1] = test system: STAT5; assay: Signaling pathways of FLT3 in cells: STAT5 phosphorylation; type: cell-based, human; details: MV-4-11, MOLM-13 and MOLM-14 cells, 4 hours; Compound 1 0.001-0.3 μM, AC220 0.1 μM
[2] = test system: MOLM-13, MOLM-14 and MV-4-11 cell lines; assay: Cell cycle distribution by flow cytometry (PI); type: cell-based, human; details: MOLM-13, MOLM-14 and MV-4-11, 12 or 24 hours; Compound 1 0.01-0.1 μM, AC220 0.1 μM
[3] = test system: MOLM-14 cells; assay: Nude mouse model harboring subcutaneous tumor; type: in vivo; details: 28 days
Method: The first day of administration was recorded as day 0, followed by continuous administration for 28 days (FIG. 4).

[4] = test system: PARP and Caspase 3; assay: Cell apoptosis, Western Blot of PARP and Caspase 3 cleavage
Description: Western Blot was used to detect the effects of different concentrations of compounds on protein cleavage of the DNA repairase poly(ADP-ribose) polymerase (PARP) and Caspase (cysteinyl aspartate-specific proteinase) 3, wherein glyceraldehyde-3-phosphate dehydrogenase (GAPDH) was used as the internal standard protein.

[5] = test system: MOLM-14; assay: Cancer cell proliferation, Cell Titer-Glo, GI50; type: cell-based; details: Homo sapiens; MOLM-14, 72 hours
Method: (§1) Compounds of the invention were evaluated for their inhibitory effects on proliferation of cancer cells as well as the selectivity thereof by testing their effects on growth of cancer cells (Table 2).
(§2) In this example the following cells were selected: human acute myeloid leukemia cells MV-4-11 (expressing FLT3[ITD] mutant gene), human acute myeloid leukemia cells MOLM-13 (expressing FLT3[ITD] mutant gene and wild-type FLT3 gene), human acute myeloid leukemia cells MOLM-14 (expressing FLT3[ITD] mutant gene and wild-type FLT3 gene), human acute myeloid leukemia cells OCI-AML3 (expressing FLT3[A680V] mutant gene), human acute myeloid leukemia cells U937 (expressing wild-type FLT3 gene), and mouse pro-B cells BaF3, and the above cells were purchased from ATCC.
(§3) Then the number of viable cells was determined by quantification of ATP in living cells using Cell Titer-Glo® (Promega, the USA) Luminescent Cell Viability Assay kit and thereby GI50 was calculated.

[6] = test system: MV-4-11; assay: Cancer cell proliferation, Cell Titer-Glo, GI50; type: cell-based; details: Homo sapiens, MV4-11; MV-4-11, 72 hours
Method: as §1, §2, §3

[7] = test system: U937; assay: Cancer cell proliferation, Cell Titer-Glo, GI50; type: cell-based; details: Homo sapiens, U-937; U937, 72 hours
Method: as §1, §2, §3

[8] = test system: BaF3-FLT3 [ITD + D835Y]; assay: Cell proliferation, Cell Titer-Glo, GI50; type: cell-based; details: Mus musculus, Ba/F3 FLT3-ITD, 72 hours
Method: as §1
(§4) Mouse BaF3-FLT3[ITD] (stably expressing FLT3[ITD] mutant activated kinase), mouse tel-BaF3-FLT3-D835Y (stably expressing FLT3[D835Y]mutant activated kinase), mouse tel-BaF3-BMX (stably expressing BMX kinase), mouse tel-FLT3-BaF3 (stably expressing FLT3 kinase), mouse BaF3-FLT3-ITD-D835Y (stably expressing FLT3[ITD+D835Y]mutant activated kinase), mouse BaF3-FLT3-ITD-F691L (stably expressing FLT3[ITD+F691L]mutant activated kinase), mouse tel-cKIT-BaF3 (stably expressing cKIT kinase), mouse BaF3-tel-cKit-N882K (stably expressing cKIT-N882K mutant activated kinase), mouse BaF3-tel-cKit-D816V (stably expressing cKIT-D816V mutant activated kinase), mouse BaF3-tel-cKit-T670I (stably expressing cKIT-T670I mutant activated kinase), mouse TPR-MET-BaF3 (stably expressing MET kinase), mouse tel-BaF3-EGFR (stably expressing EGFR kinase), mouse BaF3-FL-EGFR-L858R (stably expressing EGFR[L858R]mutant activated kinase), mouse tel-BaF3-BLK (stably expressing BLK kinase), mouse tel-JAK1-BaF3 (stably expressing JAK1 kinase) and the like were also used (see Table 2 for details). The above cell lines were all constructed by our laboratory according to the following method: the kinase region sequences of human FLT3/ITD, FLT3 D835Y, BMX, FLT3, FLT3[ITD+D835Y], FLT3[ITD+F691L], cKIT, cKIT [N882K], cKIT [D816V], cKIT [T670I], MET, EGFR, EGFR [L858R], BLK, JAK1, FLT3[K663Q], FLT3[D835V], FLT3[D835H], PDGFRa, PEGFRb, VEGFR2, JAK2, JAK3, ABL were amplified by PCR, and inserted into MSCV-Puro vectors with N-terminal TEL or TPR fragments (purchased from Clontech), respectively. The vectors were stably transfected into mouse BaF3 cells (purchased from ATCC) by means of retrovirus, and the growth factor IL-3 were removed, eventually obtaining cell lines that are transferred protein (FLT3/ITD, FLT3 D835Y, BMX, FLT3, FLT3[ITD D835Y], FLT3[ITD+F691L], cKIT, cKIT [N882K], cKIT [D816V], cKIT [T670I], MET, EGFR, EGFR [L858R], BLK, JAK1, FLT3[K663Q], FLT3[D835V], FLT3[D835H], PDGFRa, PEGFRb, VEGFR2, JAK2, JAK3, ABL)-dependent.
as §3

[9] = test system: BaF3-FLT3 [ITD + F691L]; assay: Cell proliferation, Cell Titer-Glo, GI50; type: cell-based; details: Mus musculus, Ba/F3 FLT3-ITD, 72 hours
Method: as §1, §4, §3

[10] = test system: BaF3-FLT3 [ITD]; assay: Cell proliferation, Cell Titer-Glo, GI50; type: cell-based; details: Mus musculus, Ba/F3 FLT3-ITD, 72 hours
Method: as §1, §4, §3

[11] = test system: BaF3-TEL-BMX; assay: Cell proliferation, Cell Titer-Glo, GI50; type: cell-based; details: Mus musculus, 72 hours
Method: as §1, §4, §3

[12] = test system: BaF3-TEL-FLT3 [D835H]; assay: Cell proliferation, Cell Titer-Glo, GI50; type: cell-based; details: Mus musculus, 72 hours
Method: as §1, §4, §3

[13] = test system: BaF3-TEL-FLT3 [D835V]; assay: Cell proliferation, Cell Titer-Glo, GI50; type: cell-based; details: Mus musculus, 72 hours
Method: as §1, §4, §3

[14] = test system: BaF3-TEL-FLT3 [D835Y]; assay: Cell proliferation, Cell Titer-Glo, GI50; type: cell-based; details: Mus musculus, 72 hours
Method: as §1, §4, §3

[15] = test system: BaF3-TEL-FLT3 [K663Q]; assay: Cell proliferation, Cell Titer-Glo, GI50; type: cell-based; details: Mus musculus, 72 hours
Method: as §1, §4, §3

[16] = test system: BaF3-TEL-FLT3; assay: Cell proliferation, Cell Titer-Glo, GI50; type: cell-based; details: Mus musculus; BaF3-TEL-FLT3, 72 hours
Method: as §1, §4, §3

[17] = test system: BaF3-TEL-PDGFRa; assay: Cell proliferation, Cell Titer-Glo, GI50; type: cell-based; details: Mus musculus, 72 hours
Method: as §1, §4, §3

[18] = test system: BaF3-TEL-PEGFRb; assay: Cell proliferation, Cell Titer-Glo, GI50; type: cell-based; details: Mus musculus, 72 hours
Method: as §1, §4, §3

[19] = test system: BaF3-TEL-cKIT; assay: Cell proliferation, Cell Titer-Glo, GI50; type: cell-based; details: Mus musculus, 72 hours
Method: as §1, §4, §3

[20] = test system: BaF3-TEL-cKit [D816V]; assay: Cell proliferation, Cell Titer-Glo, GI50; type: cell-based; details: Mus musculus, 72 hours
Method: as §1, §4, §3

[21] = test system: BaF3-TEL-cKit [N882K]; assay: Cell proliferation, Cell Titer-Glo, GI50; type: cell-based; details: Mus musculus, 72 hours
Method: as §1, §4, §3

[22] = test system: BaF3-TEL-cKit [T670I]; assay: Cell proliferation, Cell Titer-Glo, GI50; type: cell-based; details: Mus musculus, 72 hours
Method: as §1, §4, §3

[23] = test system: BaF3; assay: Cell proliferation, Cell Titer-Glo, GI50; type: cell-based; details: Mus musculus; BaF3, 72 hours
Method: as §1, §2, §3

GI50 [5]	GI50 [6]	GI50 [7]	GI50 [8]	GI50 [9]	GI50 [10]	GI50 [11]	GI50 [12]	GI50 [13]	GI50 [14]	GI50 [15]	GI50 [16]	GI50 [17]	GI50 [18]	GI50 [19]	GI50 [20]	GI50 [21]	GI50 [22]	GI50 [23]	Structure (SMILES)	further results
																			CC(C)(C)c1cc(NC(=O)Nc2ccc(-n3nc(-c4ccc(OCCN5CCOCC5)cc4)c4c(N)ncnc43)cc2)no1 [Compound 1, 1-(4-(4-amino-3-(4-(2-morpholinoethoxy)phenyl)-1H-pyrazolo[3,4-d]pyrimidin-1-yl)phenyl)-3-(5-(tert-butyl)isoxazol-3-yl)urea]	phosphorylation of STAT5 [1]: significant inhibition; cell cycle distribution [2]: arrested the cell cycle at phase G0-G1; mice body weight ([3]; 3.75 mg/kg daily oral gavage): no significant decrease; mice body weight ([3]; 15 mg/kg daily oral gavage): did not decrease; mice body weight ([3]; […] daily oral gavage): did not decrease; cleavage of Caspase 3 ([4]; MOLM-13, 0.003 μM, 12 hours): significant cleavage; cleavage of the DNA repairase poly(ADP-ribose) polymerase (PARP) ([4]; MOLM-13, 0.003 μM, 12 hours): significant cleavage; cleavage of the DNA repairase poly(ADP-ribose) polymerase (PARP) ([4]; MV-4-11, 24 hours): even more significant
< 0.3 nM	< 0.3 nM	2300 nM	59 nM	120 nM	< 0.3 nM	5300 nM	< 0.3 nM	4 nM	9 nM	3600 nM	1 nM	2 nM	10 nM	31 nM	1800 nM	10 nM	4 nM	~10000 nM	CC(=O)N1CCN(Cc2ccc(-c3nn(-c4ccc(NC(=O)Nc5cc(C(C)(C)C)on5)cc4)c4ncnc(N)c34)cc2)CC1 [Compound 21, 1-(4-(3-(4-((4-acetylpiperazin-1-yl)methyl)phenyl)-4amino-1H-pyrazolo[3,4-d]pyrimidin-1-yl)phenyl)-3-(5-(tert-butyl)isoxazol-3-yl)urea]	
< 0.3 nM	< 0.3 nM	8500 nM	100 nM	39 nM	< 0.3 nM	2000 nM	4 nM	17 nM	20 nM	3800 nM	1 nM	2 nM	12 nM	40 nM	2200 nM	15 nM	13 nM	6500 nM	CC(C)(C)c1cc(NC(=O)Nc2ccc(-n3nc(-c4ccc(OCCN5CCN(S(C)(=O)=O)CC5)cc4)c4c(N)ncnc43)cc2)no1 [Compound 22, 1-(4-(4-amino-3-(4-(2-(4-(methanesulfonyl)piperazin-1-yl)ethoxy)phenyl)-1H-pyrazolo[3,4-d]pyrimidin-1-yl)phenyl)-3-(5-(tert-butyl)isoxazol-3-yl)urea]	
